≈ marks a conversion by molar mass, not a printed value.
Columns and labels:
Type in all cases: cell-based
Aspergillus flavus [1] = experiment: MIC, RPMI medium; details: MIC banded into grades; for MIC: Aspergillus flavus, read-out: MIC grade, A. flavus
Experimental: (§1) Between 1 and 5 mgs of compound were accurately weighed out into a sterile Eppendorf tube. The compound was dissolved in DMSO to give a solution containing 5 mg/mL. Tubes were stored at −20° C. until required.
(§2) On the day of testing thawed solutions were vortex mixed to ensure homogeneity. 30 μL of solution was removed and added to 570 μL of sterile water in a separate sterile Eppendorf. The thoroughly mixed solution was used to prepare a series of doubling dilutions in water, in a deep well plate. Thirteen replicate plates were prepared using a Minitrak by aspirating 20 μL from each well into eleven clear polystyrene 96 well plates.
(§3) Assays were also performed in RPMI medium for both Aspergillus spp. (strains described above) and Candida spp. (Candida albicans, Candida glabrata, Candida krusei, Candida parapsilosis and Candida tropicalis). To perform MIC tests in this medium, dilutions of compounds are prepared in microtitre plates as described above. Fungal strains to be tested are grown and harvested in an identical manner to that described above, and each organism suspension was diluted in RPMI medium, containing 2% glucose and 0.135 M MOPS buffer (pH 7.0) to 0.5-2×10^4 cfu/mL, rather than in YAG medium. 80 μL of an organism suspension was added to each well of the plate containing drug dilutions.
(§4) This produced MIC plates with a drug range 50-0.05 mg/L and organism inocula of 1−2×10^4 cfu/mL. All plates were incubated for 24-48 h at 35° C. Growth was assessed by monitoring the optical density at 485 nm for each well. The MIC of a compound is the lowest drug concentration that inhibits growth of an organism by >80% compared with a drug free control.
(§5) The following organisms were tested: Aspergillus flavus, Aspergillus fumigatus AF293 and AF210, Aspergillus niger, Aspergillus terreus AT4 and AT49, Candida albicans, Candida glabrata, Candida krusei, Candida parapsilosis and Candida tropicalis.

Aspergillus niger [2] = experiment: MIC, RPMI medium; details: MIC banded into grades; for MIC: Aspergillus niger, read-out: MIC grade, A. niger
Experimental: as §1, §2, §3, §4, §5

[3] = tested on: Aspergillus fumigatus AF293; experiment: MIC, RPMI medium; details: for MIC: Aspergillus fumigatus, AF293, MIC banded into grades, read-out: MIC grade, A. fumigatus
Experimental: as §1, §2, §3, §4, §5

[4] = tested on: Aspergillus fumigatus AF210; experiment: MIC, RPMI medium; details: for MIC: Aspergillus fumigatus, AF210, MIC banded into grades, read-out: MIC grade, A. fumigatus 210
Experimental: as §1, §2, §3, §4, §5

Aspergillus terreus AT4 [5] = experiment: MIC, RPMI medium; details: for MIC: Aspergillus terreus, AT4, MIC banded into grades, read-out: MIC grade, A. terreus
Experimental: as §1, §2, §3, §4, §5

Aspergillus terreus AT49 [6] = experiment: MIC, RPMI medium; details: for MIC: Aspergillus terreus, AT49, MIC banded into grades, read-out: MIC grade, A. terreus 49
Experimental: as §1, §2, §3, §4, §5

Aspergillus flavus [7] = experiment: MIC, YAG medium; details: 24 h at 35° C, MIC banded into grades; for MIC: Aspergillus flavus, 24 h, read-out: MIC grade, A. flavus
Experimental: as §1, §2
(§6) Spores of Aspergillus spp. (Aspergillus fumigatus [two strains], Aspergillus terreus [two strains], Aspergillus niger and Aspergillus flavus) were harvested from cultures grown on Sabarauds agar for 5 days, and resuspended in PBS/Tween 80 to approx 1×10^7 cfu/mL. Each organism suspension was diluted in YAG medium (1% glucose, 1% ammonium chloride and 0.5% yeast extract) to 0.5−2×10^4 cfu/mL. 80 μL of an organism suspension was added to each well of the plate containing drug dilutions.
as §4, with “cfu/mL for Aspergillus spp.” for “cfu/mL.”, “24” for “24-48”, “>70%” for “>80%”, “control. MICs are recorded as mg/L. In cases where the MIC of an organism is […] mg/L the MIC is repeated using a concentration range of 0.5-0.0005 mg/L.” for “control.”
as §5

Aspergillus niger [8] = experiment: MIC, YAG medium; details: 24 h at 35° C, MIC banded into grades; for MIC: Aspergillus niger, read-out: MIC grade, A. niger
Experimental: as §1, §2, §6
as §4, with “cfu/mL for Aspergillus spp.” for “cfu/mL.”, “24” for “24-48”, “>70%” for “>80%”, “control. MICs are recorded as mg/L. In cases where the MIC of an organism is […] mg/L the MIC is repeated using a concentration range of 0.5-0.0005 mg/L.” for “control.”
as §5

[9] = tested on: Aspergillus fumigatus AF293; experiment: MIC, YAG medium; details: 24 h at 35° C, MIC banded into grades; for MIC: Aspergillus fumigatus, read-out: MIC grade, A. fumigatus
Experimental: as §1, §2, §6
as §4, with “cfu/mL for Aspergillus spp.” for “cfu/mL.”, “24” for “24-48”, “>70%” for “>80%”, “control. MICs are recorded as mg/L. In cases where the MIC of an organism is […] mg/L the MIC is repeated using a concentration range of 0.5-0.0005 mg/L.” for “control.”
as §5

[10] = tested on: Aspergillus fumigatus AF210; experiment: MIC, YAG medium; details: 24 h at 35° C, MIC banded into grades; for MIC: Aspergillus fumigatus, read-out: MIC grade, A. fumigatus 210
Experimental: as §1, §2, §6
as §4, with “cfu/mL for Aspergillus spp.” for “cfu/mL.”, “24” for “24-48”, “>70%” for “>80%”, “control. MICs are recorded as mg/L. In cases where the MIC of an organism is […] mg/L the MIC is repeated using a concentration range of 0.5-0.0005 mg/L.” for “control.”
as §5

Aspergillus terreus AT4 [11] = experiment: MIC, YAG medium; details: 24 h at 35° C, MIC banded into grades; for MIC: Aspergillus terreus, read-out: MIC grade, A. terreus
Experimental: as §1, §2, §6
as §4, with “cfu/mL for Aspergillus spp.” for “cfu/mL.”, “24” for “24-48”, “>70%” for “>80%”, “control. MICs are recorded as mg/L. In cases where the MIC of an organism is […] mg/L the MIC is repeated using a concentration range of 0.5-0.0005 mg/L.” for “control.”
as §5

Aspergillus terreus AT49 [12] = experiment: MIC, YAG medium; details: 24 h at 35° C, MIC banded into grades; for MIC: Aspergillus terreus, read-out: MIC grade, A. terreus 49
Experimental: as §1, §2, §6
as §4, with “cfu/mL for Aspergillus spp.” for “cfu/mL.”, “24” for “24-48”, “>70%” for “>80%”, “control. MICs are recorded as mg/L. In cases where the MIC of an organism is […] mg/L the MIC is repeated using a concentration range of 0.5-0.0005 mg/L.” for “control.”
as §5

| MIC (Aspergillus flavus [1]) | MIC (Aspergillus niger [2]) | MIC [3] | MIC [4] | MIC (Aspergillus terreus AT4 [5]) | MIC (Aspergillus terreus AT49 [6]) | MIC (Aspergillus flavus [7]) | MIC (Aspergillus niger [8]) | MIC [9] | MIC [10] | MIC (Aspergillus terreus AT4 [11]) | MIC (Aspergillus terreus AT49 [12]) | Compound | other results |
| --- | --- | --- | --- | --- | --- | --- | --- | --- | --- | --- | --- | --- | --- |
| < 1 µg/mL | 1 to 10 µg/mL (≈ 2.12 to 21.2 µM) | < 1 µg/mL | < 1 µg/mL | < 1 µg/mL | < 1 µg/mL | < 1 µg/mL | < 1 µg/mL | < 1 µg/mL | < 1 µg/mL | < 1 µg/mL | < 1 µg/mL | Cc1cc(-c2ccccc2)c(C(=O)C(=O)Nc2ccc(N3CCN(C(=O)C(C)C)CC3)cc2)n1C [Example 145, 2-(1,5-Dimethyl-3-phenyl-1H-pyrrol-2-yl)-N-[4-(4-isobutyryl-piperazin-1-yl)-phenyl]-2-oxo-acetamide] | – |
| – | – | – | – | – | – | – | – | – | – | – | – | CCOC(=O)n1c(C)cc(-c2ccccc2)c1C(=O)C(=O)Nc1ccc(N2CCN(c3cc(C)cc(C)n3)CC2)cc1 [Example 55, 2-{4-[4-(4,6-Dimethyl-pyridin-2-yl)-piperazin-1-yl]-phenylaminooxalyl}-5-methyl-3-phenyl-pyrrole-1-carboxylic acid ethyl ester] | MIC grade, A. flavus (Aspergillus flavus [1]): 1 (a grade of 1 represents an MIC of greater than 10 mg/L); MIC grade, A. niger (Aspergillus niger [2]): 1 (a grade of 1 represents an MIC of greater than 10 mg/L); MIC grade, A. fumigatus ([3]; MIC banded into grades): 1 (a grade of 1 represents an MIC of greater than 10 mg/L); MIC grade, A. fumigatus 210 ([4]; MIC banded into grades): 1 (a grade of 1 represents an MIC of greater than 10 mg/L); MIC grade, A. terreus (Aspergillus terreus AT4 [5]; MIC banded into grades): 1 (a grade of 1 represents an MIC of greater than 10 mg/L); MIC grade, A. terreus 49 (Aspergillus terreus AT49 [6]; MIC banded into grades): 1 (a grade of 1 represents an MIC of greater than 10 mg/L); MIC grade, A. flavus (Aspergillus flavus [7]): 1 (a grade of 1 represents an MIC of greater than 10 mg/L); MIC grade, A. niger (Aspergillus niger [8]): 1 (a grade of 1 represents an MIC of greater than 10 mg/L); MIC grade, A. fumigatus [9]: 2 (A grade of 2 represents an MIC of from 1 to 10 mg/L); MIC grade, A. fumigatus 210 [10]: 2 (A grade of 2 represents an MIC of from 1 to 10 mg/L); MIC grade, A. terreus (Aspergillus terreus AT4 [11]): 1 (a grade of 1 represents an MIC of greater than 10 mg/L); MIC grade, A. terreus 49 (Aspergillus terreus AT49 [12]): 2 (A grade of 2 represents an MIC of from 1 to 10 mg/L) |
| > 10 µg/mL | > 10 µg/mL | > 10 µg/mL | > 10 µg/mL | > 10 µg/mL | > 10 µg/mL | 1 to 10 µg/mL (≈ 1.64 to 16.4 µM) | 1 to 10 µg/mL (≈ 1.64 to 16.4 µM) | 1 to 10 µg/mL (≈ 1.64 to 16.4 µM) | 1 to 10 µg/mL (≈ 1.64 to 16.4 µM) | 1 to 10 µg/mL (≈ 1.64 to 16.4 µM) | 1 to 10 µg/mL (≈ 1.64 to 16.4 µM) | Cc1cc(C)nc(N2CCN(c3ccc(NC(=O)C(=O)c4c(-c5ccccc5)cc(C)n4C)cc3COCCN(C)C)CC2)c1 [Example 17, N-{3-(2-Dimethylamino-ethoxymethyl)-4-[4-(4,6-dimethyl-pyridin-2-yl)-piperazin-1-yl]-phenyl}-2-(1,5-dimethyl-3-phenyl-1H-pyrrol-2-yl)-2-oxo-acetamide] | – |
| > 10 µg/mL | < 1 µg/mL | < 1 µg/mL | < 1 µg/mL | 1 to 10 µg/mL (≈ 1.76 to 17.6 µM) | 1 to 10 µg/mL (≈ 1.76 to 17.6 µM) | 1 to 10 µg/mL (≈ 1.76 to 17.6 µM) | < 1 µg/mL | < 1 µg/mL | < 1 µg/mL | < 1 µg/mL | < 1 µg/mL | CSCCn1c(C)cc(-c2ccccc2)c1C(=O)C(=O)Nc1ccc(N2CCN(c3cc(C)cc(C)n3)CC2)cc1 [Example 133, N-{4-[4-(4,6-Dimethyl-pyridin-2-yl)-piperazin-1-yl]-phenyl}-2-[5-methyl-1-(2-methylsulfanyl-ethyl)-3-phenyl-1H-pyrrol-2-yl]-2-oxo-acetamide] | – |

| Compound | MIC (Aspergillus flavus [1]) | MIC (Aspergillus niger [2]) | MIC [3] | MIC [4] | MIC (Aspergillus terreus AT4 [5]) | MIC (Aspergillus terreus AT49 [6]) | MIC (Aspergillus flavus [7]) | MIC (Aspergillus niger [8]) | MIC [9] | MIC [10] | MIC (Aspergillus terreus AT4 [11]) | MIC (Aspergillus terreus AT49 [12]) | other results |
| --- | --- | --- | --- | --- | --- | --- | --- | --- | --- | --- | --- | --- | --- |
| CCCCOCn1c(C)cc(-c2ccccc2)c1C(=O)C(=O)Nc1ccc(N2CCN(c3cc(C)cc(C)n3)CC2)cc1 [Example 135, 2-(1-Butoxymethyl-5-methyl-3-phenyl-1H-pyrrol-2-yl)-N-{4-[4-(4,6-dimethyl-pyridin-2-yl)-piperazin-1-yl]-phenyl}-2-oxo-acetamide] | > 10 µg/mL | > 10 µg/mL | > 10 µg/mL | > 10 µg/mL | > 10 µg/mL | > 10 µg/mL | > 10 µg/mL | 1 to 10 µg/mL (≈ 1.72 to 17.2 µM) | < 1 µg/mL | 1 to 10 µg/mL (≈ 1.72 to 17.2 µM) | 1 to 10 µg/mL (≈ 1.72 to 17.2 µM) | > 10 µg/mL | – |

Reference: US8993574B2, “Pyrrole antifungal agents” (F2G Ltd, priority 2008, dated 2015)
